What was measured:
PI3K gamma = PI3K gamma (Homo sapiens, UniProt P48736); assay: PI3K HTRF activity assay; assay type: biochemical; details: final concentration 50 μM
Protocol: In a final reaction volume of 20 μL, the test PI3K is incubated in assay buffer containing 10 μM phosphatidylinositol-4,5-bisphosphate and MgATP. The reaction is initiated by the addition of the MgATP mix. After incubation for 30 minutes at room temperature, the reaction is stopped by the addition of 5 μL of stop solution containing EDTA and biotinylated phosphatidylinositol-3,4,5-trisphosphate. Finally, 5 μL of detection buffer is added (containing europium-labelled anti-GST monoclonal antibody, GST-tagged GRP1 PH domain and streptavidin-allophycocyanin). The test plate is then read in time-resolved fluorescence mode and the homogenous time-resolved fluorescence (HTRF) signal is determined according to the formula HTRF=10000×(Em665 nm/Em620 nm).

c-SRC (h) = c-SRC (h) (Homo sapiens, UniProt P12931); assay: c-Src kinase activity assay (cell-free, 33P-ATP); assay type: biochemical
Protocol: (§1) In a final reaction volume of 25 μL, c-SRC (h) (5-10 mU) is incubated with 8 mM MOPS pH 7.0, 0.2 mM EDTA, 250 μM KVEKIGEGTYGVVYK (SEQ ID No. 19) (Cdc2 peptide), 10 mM MgAcetate and [γ-33P-ATP] (specific activity approx. 500 cpm/pmol, concentration as required). The reaction is initiated by the addition of the MgATP mix. After incubation for 40 minutes at room temperature, the reaction is stopped by the addition of 5 μL of a 3% phosphoric acid solution. 10 μL of the reaction is then spotted onto a P30 filtermat and washed three times for 5 minutes in 75 mM phosphoric acid and once in methanol prior to drying and scintillation counting.

human Lyn = human Lyn (Homo sapiens, UniProt P07948); assay: Lyn kinase activity assay; assay type: biochemical; details: 20 μM
Protocol: In a final reaction volume of 25 μl, human Lyn is incubated with the RSKAKNPLYR peptide (SEQ ID No: 6) in 50 mM Tris buffer pH 7.5, 0.1 mM EGTA, 0.1 mM Na3VO4, 1% mercaptoethanol, 0.1 mg/ml poly(Glu,Tyr) 4:1, 10 mM Mg acetate and [γ-33P-ATP] (specific activity approx. 500 cpm/pmol). The reaction was initiated by the addition of the MgATP mix, incubated for 40 minutes at room temperature prior to being stopped and kinase activity assessed by scintillation counting as per the protocol described for c-Src described in Example 1.1.

human Yes = human Yes (Homo sapiens, UniProt P07947); assay: Yes kinase activity assay; assay type: biochemical; details: 20 μM
Protocol: In a final reaction volume of 25 μl, human Yes is incubated with the RSKAKNPLYR peptide (SEQ ID No: 6) in 8 mM MOPS buffer pH 7.0, 0.2 mM EDTA, 0.1 mg/ml poly(Glu,Tyr) 4:1, 10 mM Mg acetate and [γ-33P-ATP] (specific activity approx. 500 cpm/pmol). The reaction is initiated by the addition of the MgATP mix, incubated for 40 minutes at room temperature prior to being stopped and kinase activity assessed by scintillation counting again as per the protocol described for c-Src in Example 1.1.

PKB alpha = PKB alpha (Homo sapiens, UniProt P31749); assay: PKB kinase activity assay; assay type: biochemical; details: 20 μM, relative to control
Protocol: as §1, with “25 μL, PKB(h) (5-10 mU)” for “25 μL, c-SRC (h) (5-10 mU)”, “mM EDTA, 30 μM GRPRTSSFAEGKK” for “mM EDTA, 250 μM KVEKIGEGTYGVVYK”, “30 μM GRPRTSSFAEGKK (SEQ ID” for “250 μM KVEKIGEGTYGVVYK (SEQ ID”, “ID No. 26), 10 mM” for “ID No. 19) (Cdc2 peptide), 10 mM”, “the reaction mixture is then” for “the reaction is then”

mTOR = mTOR (Homo sapiens, UniProt P42345); assay: mTOR activity; assay type: biochemical; details: 20 μM, data not shown
kinases listed Table 2 = assay: Kinase dose response study (kinases listed Table 2); assay type: biochemical; details: range over all kinases of Table 2; read-out: IC50 percentage inhibition of activity for all the kinases
Protocol: In a dose response study, the inhibition of the activity of the kinases listed Table 2 at increasing concentrations of dendrimer Dend 10-10(4)DP (see Example 2.3) was assessed employing the treatment protocols described in Examples 1 to 3. As shown in the table, inhibition of kinase activity was obtained by the dendrimer at all the concentrations tested. The IC50 percentage inhibition of activity for all the kinases was in the range of from 0.25-2.0 μM. The results shown in Table 2 are percentage inhibition relative to controls. Comparative dose results for 1 μM dendrimer Dend 10-10(4) are also shown.

[1] = test system: HT-29 human colon cancer cells; assay: Apoptosis assay (FITC Annexin V / PI, FACS); assay type: cell-based; details: 10 μM, 4 hours; FIG. 11
Protocol: The cells were harvested by trypsinisation, washed twice in HBSS and counted counted using Trypan Blue staining. The cells were then re-suspended in the appropriate culture medium to a concentration of 1×10^6 cells/mL. […] The cells were allowed to attach to the plate for 1 h. […] Cells were then harvested by trypsinisation, washed twice in cold phosphate buffered saline (PBS) and then resuspended in 1× binding buffer. 100 μL of the cell suspensions containing 1×10^5 cells were transferred to a 5 mL plastic tube. […] Three controls were also analysed: unstained cells, cells stained only with Annexin V and cells stained only with PI. The data was presented as the percentage of cells being either Annexin V positive only (excluding PI positive cells), PI positive (total) or Annexin V and PI positive (double stain).

[2] = test system: MKN45 gastric carcinoma cells; assay: MTT growth/proliferation, MKN45 cells; assay type: cell-based; details: 48 hours
Protocol: (§2) In this study, the cells were incubated in the presence of the dendrimer for 48 hours. Cell lines were maintained at 37° C. in a humid atmosphere containing 5% CO2. Cells were passaged at pre-confluent densities using a solution containing 0.05% trypsin and 0.5 mM EDTA (Invitrogen).

[3] = test system: MCF-7 breast cancer cells; assay: MTT growth/proliferation, MCF-7 cells; assay type: cell-based; details: 48 hours
Protocol: as §2

[4] = test system: DU145 prostate cancer cells; assay: MTT growth/proliferation, DU145 cells; assay type: cell-based; details: 48 hours
Protocol: as §2

human Yes, sequence (P07947 whole entry): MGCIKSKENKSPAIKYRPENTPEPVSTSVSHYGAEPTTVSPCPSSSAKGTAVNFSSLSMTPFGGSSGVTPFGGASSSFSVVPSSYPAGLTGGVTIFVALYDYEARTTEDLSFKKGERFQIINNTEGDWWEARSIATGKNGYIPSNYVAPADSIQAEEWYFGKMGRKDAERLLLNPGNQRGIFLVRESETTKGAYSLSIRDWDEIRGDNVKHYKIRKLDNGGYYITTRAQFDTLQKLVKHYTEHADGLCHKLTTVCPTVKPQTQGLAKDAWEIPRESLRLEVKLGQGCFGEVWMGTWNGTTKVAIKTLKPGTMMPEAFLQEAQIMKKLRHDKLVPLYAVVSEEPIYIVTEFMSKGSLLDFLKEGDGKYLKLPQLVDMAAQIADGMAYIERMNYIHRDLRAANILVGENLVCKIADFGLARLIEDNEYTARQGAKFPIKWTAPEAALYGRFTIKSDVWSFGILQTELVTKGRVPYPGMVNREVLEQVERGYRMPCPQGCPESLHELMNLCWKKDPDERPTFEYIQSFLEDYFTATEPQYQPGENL
PI3K gamma, sequence (P48736 whole entry, species assumed, the tested form may be a part): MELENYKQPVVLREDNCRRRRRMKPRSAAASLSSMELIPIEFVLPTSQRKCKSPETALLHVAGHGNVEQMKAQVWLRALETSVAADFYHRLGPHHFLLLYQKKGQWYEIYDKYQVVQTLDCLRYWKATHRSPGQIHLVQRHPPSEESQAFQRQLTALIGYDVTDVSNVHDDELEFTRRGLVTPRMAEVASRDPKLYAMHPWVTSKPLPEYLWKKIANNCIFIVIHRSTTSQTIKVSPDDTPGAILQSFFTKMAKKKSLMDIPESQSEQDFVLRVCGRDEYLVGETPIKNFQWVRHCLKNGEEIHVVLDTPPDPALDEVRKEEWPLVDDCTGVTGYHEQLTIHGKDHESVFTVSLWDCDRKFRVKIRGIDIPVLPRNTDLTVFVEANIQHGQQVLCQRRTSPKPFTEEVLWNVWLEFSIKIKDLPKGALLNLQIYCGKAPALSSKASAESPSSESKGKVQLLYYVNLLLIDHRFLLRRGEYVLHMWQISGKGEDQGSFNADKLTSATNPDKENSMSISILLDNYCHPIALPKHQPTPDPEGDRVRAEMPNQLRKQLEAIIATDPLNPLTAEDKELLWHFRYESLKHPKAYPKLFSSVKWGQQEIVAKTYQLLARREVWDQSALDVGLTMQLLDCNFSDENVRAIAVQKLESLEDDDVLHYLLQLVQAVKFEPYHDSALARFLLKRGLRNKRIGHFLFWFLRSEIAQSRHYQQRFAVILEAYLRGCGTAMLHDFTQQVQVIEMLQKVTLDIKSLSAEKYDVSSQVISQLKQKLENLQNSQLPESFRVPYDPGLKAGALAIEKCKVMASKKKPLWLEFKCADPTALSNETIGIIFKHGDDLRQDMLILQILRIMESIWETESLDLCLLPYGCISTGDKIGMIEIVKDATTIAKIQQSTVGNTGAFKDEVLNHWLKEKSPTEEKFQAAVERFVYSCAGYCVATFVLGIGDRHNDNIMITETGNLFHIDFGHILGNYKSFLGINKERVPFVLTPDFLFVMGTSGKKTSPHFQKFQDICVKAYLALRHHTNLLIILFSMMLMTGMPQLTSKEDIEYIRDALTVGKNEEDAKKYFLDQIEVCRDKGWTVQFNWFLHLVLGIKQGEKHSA
PKB alpha, sequence (P31749 whole entry): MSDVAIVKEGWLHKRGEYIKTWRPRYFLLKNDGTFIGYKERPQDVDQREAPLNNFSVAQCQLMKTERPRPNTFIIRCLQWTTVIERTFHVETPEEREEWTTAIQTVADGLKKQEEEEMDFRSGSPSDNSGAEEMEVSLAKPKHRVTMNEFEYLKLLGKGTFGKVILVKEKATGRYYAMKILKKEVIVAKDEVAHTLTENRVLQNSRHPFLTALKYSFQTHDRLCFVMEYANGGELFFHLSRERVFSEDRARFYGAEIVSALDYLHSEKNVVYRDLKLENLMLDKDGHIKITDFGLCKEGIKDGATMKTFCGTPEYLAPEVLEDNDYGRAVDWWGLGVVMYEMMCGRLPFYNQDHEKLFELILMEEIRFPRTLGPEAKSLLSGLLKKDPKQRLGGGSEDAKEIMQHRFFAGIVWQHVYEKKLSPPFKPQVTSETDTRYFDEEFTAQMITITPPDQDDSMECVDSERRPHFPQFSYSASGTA
human Lyn, sequence (P07948 whole entry): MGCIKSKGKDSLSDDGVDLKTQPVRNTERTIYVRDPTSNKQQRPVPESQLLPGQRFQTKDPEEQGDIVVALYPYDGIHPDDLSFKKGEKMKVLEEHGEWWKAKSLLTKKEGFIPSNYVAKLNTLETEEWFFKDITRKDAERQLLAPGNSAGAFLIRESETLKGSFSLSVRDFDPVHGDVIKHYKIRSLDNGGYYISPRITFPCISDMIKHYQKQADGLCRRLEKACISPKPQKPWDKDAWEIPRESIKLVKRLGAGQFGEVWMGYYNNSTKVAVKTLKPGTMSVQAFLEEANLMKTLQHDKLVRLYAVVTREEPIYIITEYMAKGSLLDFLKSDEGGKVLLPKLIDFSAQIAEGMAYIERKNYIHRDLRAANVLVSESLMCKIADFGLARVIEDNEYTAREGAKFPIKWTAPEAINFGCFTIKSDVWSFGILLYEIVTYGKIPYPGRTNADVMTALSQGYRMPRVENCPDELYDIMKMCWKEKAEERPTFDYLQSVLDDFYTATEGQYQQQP

inhibition of the activity of c-Lyn relative to controls (human Lyn) | inhibition of the activity of c-Yes relative to controls (human Yes) | % Kinase inhibition PKB alpha (PKB alpha) | effect on activity of mTOR (mTOR) | IC50 (kinases listed Table 2) | Molecule | PIK3 gamma % activity relative to control (PI3K gamma) | inhibition of c-Src activity compared to peptide RSKAKNPLYR alone (c-SRC (h)) | apoptosis in HT-29 cells [1] | inhibition of growth/proliferation of MKN45 cells [2] | inhibition of growth/proliferation of MCF-7 cells [3] | inhibition of growth/proliferation of DU145 cells [4]
 |  |  |  |  | CC(C)C[C@H](NC(=O)[C@@H]1CCCN1C(=O)[C@H](CC(N)=O)NC(=O)[C@H](CCCCN)NC(=O)[C@H](C)NC(=O)[C@H](CCCCN)NC(=O)[C@H](CO)NC(=O)[C@@H](N)CCCNC(=N)N)C(=O)N[C@@H](Cc1ccc(O)cc1)C(=O)N[C@@H](CCCNC(=N)N)C(=O)NCCCC[C@H](NC(=O)[C@H](CCCCNC(=O)[C@H](CCCCNC(=O)[C@H](CCCNC(=N)N)NC(=O)[C@H](Cc1ccc(O)cc1)NC(=O)[C@H](CC(C)C)NC(=O)[C@@H]1CCCN1C(=O)[C@H](CC(N)=O)NC(=O)[C@H](CCCCN)NC(=O)[C@H](C)NC(=O)[C@H](CCCCN)NC(=O)[C@H](CO)NC(=O)[C@@H](N)CCCNC(=N)N)NC(=O)[C@H](CCCNC(=N)N)NC(=O)[C@H](Cc1ccc(O)cc1)NC(=O)[C@H](CC(C)C)NC(=O)[C@@H]1CCCN1C(=O)[C@H](CC(N)=O)NC(=O)[C@H](CCCCN)NC(=O)[C@H](C)NC(=O)[C@H](CCCCN)NC(=O)[C@H](CO)NC(=O)[C@@H](N)CCCNC(=N)N)NC(=O)[C@H](CCCCNC(=O)[C@H](CCCNC(=N)N)NC(=O)[C@H](Cc1ccc(O)cc1)NC(=O)[C@H](CC(C)C)NC(=O)[C@@H]1CCCN1C(=O)[C@H](CC(N)=O)NC(=O)[C@H](CCCCN)NC(=O)[C@H](C)NC(=O)[C@H](CCCCN)NC(=O)[C@H](CO)NC(=O)[C@@H](N)CCCNC(=N)N)NC(=O)[C@H](CCCNC(=N)N)NC(=O)[C@H](Cc1ccc(O)cc1)NC(=O)[C@H](CC(C)C)NC(=O)[C@@H]1CCCN1C(=O)[C@H](CC(N)=O)NC(=O)[C@H](CCCCN)NC(=O)[C@H](C)NC(=O)[C@H](CCCCN)NC(=O)[C@H](CO)NC(=O)[C@@H](N)CCCNC(=N)N)C(=O)NCCCC[C@H](NC(=O)[C@H](CCCCNC(=O)[C@H](CCCNC(=N)N)NC(=O)[C@H](Cc1ccc(O)cc1)NC(=O)[C@H](CC(C)C)NC(=O)[C@@H]1CCCN1C(=O)[C@H](CC(N)=O)NC(=O)[C@H](CCCCN)NC(=O)[C@H](C)NC(=O)[C@H](CCCCN)NC(=O)[C@H](CO)NC(=O)[C@@H](N)CCCNC(=N)N)NC(=O)[C@H](CCCCNC(=O)[C@H](CCCCNC(=O)[C@H](CCCNC(=N)N)NC(=O)[C@H](Cc1ccc(O)cc1)NC(=O)[C@H](CC(C)C)NC(=O)[C@@H]1CCCN1C(=O)[C@H](CC(N)=O)NC(=O)[C@H](CCCCN)NC(=O)[C@H](C)NC(=O)[C@H](CCCCN)NC(=O)[C@H](CO)NC(=O)[C@@H](N)CCCNC(=N)N)NC(=O)[C@H](CCCNC(=N)N)NC(=O)[C@H](Cc1ccc(O)cc1)NC(=O)[C@H](CC(C)C)NC(=O)[C@@H]1CCCN1C(=O)[C@H](CC(N)=O)NC(=O)[C@H](CCCCN)NC(=O)[C@H](C)NC(=O)[C@H](CCCCN)NC(=O)[C@H](CO)NC(=O)[C@@H](N)CCCNC(=N)N)NC(=O)[C@H](CCCCNC(=O)[C@H](CCCNC(=N)N)NC(=O)[C@H](Cc1ccc(O)cc1)NC(=O)[C@H](CC(C)C)NC(=O)[C@@H]1CCCN1C(=O)[C@H](CC(N)=O)NC(=O)[C@H](CCCCN)NC(=O)[C@H](C)NC(=O)[C@H](CCCCN)NC(=O)[C@H](CO)NC(=O)[C@@H](N)CCCNC(=N)N)NC(=O)[C@H](CCCNC(=N)N)NC(=O)[C@H](Cc1ccc(O)cc1)NC(=O)[C@H](CC(C)C)NC(=O)[C@@H]1CCCN1C(=O)[C@H](CC(N)=O)NC(=O)[C@H](CCCCN)NC(=O)[C@H](C)NC(=O)[C@H](CCCCN)NC(=O)[C@H](CO)NC(=O)[C@@H](N)CCCNC(=N)N)C(=O)NCCC(N)=O [Dend 10-10(4)] | 11% |  |  |  |  | 
96% | 99% | 29% | without any effect | 250 to 2000 nM | Dend 10-10(4) whose RSKAKNPLYR peptides are entirely D-amino acids and pegylated with two ethylene glycol units [Dend 10-10(4)DP] |  | no increase in the inhibition of c-Src activity | substantial level of apoptosis | inhibited growth/proliferation | inhibited growth/proliferation | inhibited growth/proliferation

From patent US20120277161A1, “INHIBITION OF MULTIPLE CELL ACTIVATION PATHWAYS” (INTER-K PTY LIMITED, priority 2009, published 2012)
